Laboratory results: patent publication US11840497B2, “4-(p-quinonyl)-2-hydroxybutanamide derivatives for treatment of mitochondrial diseases” (PTC Therapeutics, Inc., priority 2007, dated 2023)

Key:
Type in all cases: cell-based
[1] = tested on: human dermal fibroblasts from Parkinson's Disease patients; test: Rescue of BSO-stressed fibroblasts from Parkinson's Disease patients (Example D); conditions: Fibroblast, PD fibroblasts AG20439, screen as Example A, read-out: protection against PD, EC50
Method: The compounds were tested for their ability to rescue human dermal fibroblasts from Parkinson's Disease patients from oxidative stress.

[2] = tested on: Human dermal fibroblasts from Friedreich's Ataxia patients; test: Rescue of BSO-stressed FRDA fibroblasts (Example A); conditions: FRDA fibroblasts GM04078, 1 mM BSO, read-out: protection against FRDA, EC50
Method: Test samples, 4 reference compounds (idebenone, decylubiquinone, Trolox and α-tocopherol acetate), and solvent controls were tested for their ability to rescue FRDA fibroblasts stressed by addition of L-buthionine (S,R)-sulfoximine (BSO), as described in Jauslin et al., Hum. Mol. Genet. […] Mol. Genet. […] This specific BSO-mediated cell death can be prevented by administration of antioxidants or molecules involved in the antioxidant pathway, such as α-tocopherol, selenium, or small molecule glutathione peroxidase mimetics. However, antioxidants differ in their potency, i.e. the concentration at which they are able to rescue BSO-stressed FRDA fibroblasts.
Fetal Calf Serum was obtained from PAA Laboratories. Basic fibroblast growth factor and epidermal growth factor were purchased from PeproTech. Penicillin-streptomycin-glutamine mix, L-buthionine (S,R)-sulfoximine, (+)-α-tocopherol acetate, decylubiquinone, and insulin from bovine pancreas were purchased from Sigma. Trolox (6-Hydroxy-2,5,7,8-tetramethylchroman-2-carboxylic acid) was obtained from Fluka. Idebenone was obtained from Chemo Iberica. Calcein AM was purchased from Molecular Probes. Cell culture medium was made by combining 125 ml M199 EBS, 50 ml Fetal Calf Serum, 100 U/ml penicillin, 100 μg/ml streptomycin, 2 mM glutamine, 10 μg/ml insulin, 10 ng/ml EGF, and 10 ng/ml bFGF; MEM EBS was added to make the volume up to 500 ml. […] During the course of the experiments, this solution was stored at +4° C. The cells were obtained from the Coriell Cell Repositories (Camden, NJ; repository number GM04078) and grown in 10 cm tissue culture plates. Every third day, they were split at a 1:3 ratio.
The test samples were supplied in 1.5 ml glass vials. […] Once dissolved, they were stored at −20° C. Reference antioxidants (idebenone, decylubiquinone, α-tocopherol acetate and trolox) were dissolved in DMSO.
Test samples were screened according to the following protocol: A culture with FRDA fibroblasts was started from a 1 ml vial with approximately 500,000 cells stored in liquid nitrogen. […] Once confluent, fibroblasts were harvested. […] The remaining cells were distributed in 10 cm cell culture plates (500,000 cells/plate) for propagation. The plates were incubated overnight at 37° C. in a atmosphere with 95% humidity and 5% CO2 to allow attachment of the cells to the culture plate.
MTP medium (243 μl) was added to a well of the microtiter plate. […] Serial dilutions from the master solution were made. The period between the single dilution steps was kept as short as possible (generally less than 1 second).
Plates were kept overnight in the cell culture incubator. The next day, 10 μl of a 10 mM BSO solution were added to the wells, resulting in a 1 mM final BSO concentration. Forty-eight hours later, three plates were examined under a phase-contrast microscope to verify that the cells in the 0% control (wells E1-H1) were clearly dead. The medium from all plates was discarded, and the remaining liquid was removed by gently tapping the plate inversed onto a paper towel.
The plates were incubated for 50-70 minutes at room temperature. After that time the PBS was discarded, the plate gently tapped on a paper towel and fluorescence (excitation/emission wavelengths of 485 nm and 525 nm, respectively) was read on a Gemini fluorescence reader. Data was imported into Microsoft Excel (EXCEL is a registered trademark of Microsoft Corporation for a spreadsheet program) and used to calculate the EC50 concentration for each compound.
The compounds were tested three times, i.e., the experiment was performed three times, the passage number of the cells increasing by one with every repetition.
The viability of non-BSO treated fibroblasts was set as 100%, and the viability of the BSO- and compound-treated cells was calculated as relative to this value.

[3] = tested on: human dermal fibroblasts from Huntington's patients; test: Rescue of BSO-stressed fibroblasts from Huntington's patients (Example B); conditions: Fibroblast, Huntington's fibroblasts GM 04281, screen as Example A, read-out: protection against Hungtington's, EC50
Method: The compounds were tested for their ability to rescue human dermal fibroblasts from Huntington's patients from oxidative stress.

[4] = tested on: human dermal fibroblasts from LHON patients; test: Rescue of BSO-stressed fibroblasts from LHON patients (Example C); conditions: Fibroblast, LHON fibroblasts GM03858, screen as Example A, read-out: protection against LHON, EC50
Method: The compounds were tested for their ability to rescue human dermal fibroblasts from LHON patients from oxidative stress.

[5] = tested on: human dermal fibroblasts from CoQ10 deficient patients; test: Rescue of stressed fibroblasts from CoQ10 deficient patients (Example E); conditions: Fibroblast, fibroblasts harboring a CoQ2 mutation, screen similar to Example A, read-out: protection against CoQ10 deficiency, EC50
Method: Compounds of the invention were tested using a screen similar to the one described in Example A, but substituting FRDA cells with cells obtained from CoQ10 deficient patients harboring a CoQ2 mutation.

Measured: EC50

CC1=C(C)C(=O)C(CCC(C)(O)C(=O)NC(C)C)=C(C)C1=O (stereo not drawn) [2-hydroxy-N-isopropyl-2-methyl-4-(2,4,5-trimethyl-3,6-dioxocyclohexa-1,4-dienyl)butanamide]
< 100 nM: [1]

CC1=C(C)C(=O)C(CCC(C)(O)C(=O)N2CCN(Cc3ccccc3)CC2)=C(C)C1=O (stereo not drawn) [Example 15, 2-(4-(4-Benzylpiperazin-1-yl)-3-hydroxy-3-methyl-4-oxobutyl)-3,5,6-trimethylcyclohexa-2,5-diene-1,4-dione]
not listed: [5]
< 100 nM: all other assays above

CC1=C(C)C(=O)C(CCC(C)(O)C(=O)NCCO)=C(C)C1=O (stereo not drawn) [Example 20, 2-Hydroxy-N-(2-hydroxyethyl)-2-methyl-4-(2,4,5-trimethyl-3,6-dioxocyclohexa-1,4-dienyl)butanamide]
< 100 nM: all assays above

CC1=C(C)C(=O)C(CCC(C)(O)C(=O)NCCCn2ccnc2)=C(C)C1=O (stereo not drawn) [Example 23, N-(3-(1H-imidazol-1-yl)propyl)-2-hydroxy-2-methyl-4-(2,4,5-trimethyl-3,6-dioxocyclohexa-1,4-dienyl)butanamide]
< 100 nM: [2] | [1] | [3]

CC1=C(C)C(=O)C(CC[C@@](C)(O)C(=O)NCCO)=C(C)C1=O [Example 24, (R)-2-Hydroxy-N-(2-hydroxyethyl)-2-methyl-4-(2,4,5-trimethyl-3,6-dioxocyclohexa-1,4-dienyl)butanamide]
< 100 nM: [2] | [1] | [3]

CC1=C(C)C(=O)C(CCC(C)(O)C(=O)NCCOCCO)=C(C)C1=O (stereo not drawn) [Example 25, 2-Hydroxy-N-(2-(2-hydroxyethoxy)ethyl)-2-methyl-4-(2,4,5-trimethyl-3,6-dioxocyclohexa-1,4-dienyl)butanamide]
not listed: [5]
< 100 nM: all other assays above

CC1=C(C)C(=O)C(CC[C@](C)(O)C(=O)NCCO)=C(C)C1=O [Example 28, (S)-2-hydroxy-N-(2-hydroxyethyl)-2-methyl-4-(2,4,5-trimethyl-3,6-dioxocyclohexa-1,4-dienyl)butanamide]
< 100 nM: [2] | [1] | [3]

CC1=C(C)C(=O)C(CCC(C)(O)C(=O)NCCc2ccc(O)cc2)=C(C)C1=O (stereo not drawn) [Example 36, N-(4-Hydroxyphenethyl)-2-hydroxy-2-methyl-4-(2,4,5-trimethyl-3,6-dioxocyclohexa-1,4-dienyl)butanamide]
not listed: [5]
< 100 nM: all other assays above

CC1=C(C)C(=O)C(CCC(C)(O)C(=O)NCCN(C)C)=C(C)C1=O (stereo not drawn) [Example 37, N-(2-(Dimethylamino)ethyl)-2-hydroxy-2-methyl-4-(2,4,5-trimethyl-3,6-dioxocyclohexa-1,4-dienyl)butanamide]
< 100 nM: all assays above

CC1=C(C)C(=O)C(CCC(C)(O)C(=O)NCCCN(C)C)=C(C)C1=O (stereo not drawn) [Example 40, N-(3-(Dimethylamino)propyl)-2-hydroxy-2-methyl-4-(2,4,5-trimethyl-3,6-dioxocyclohexa-1,4-dienyl)butanamide]
< 100 nM: [2] | [1] | [3]

CC1=C(C)C(=O)C(CCC(C)(O)C(=O)Nc2ccc(F)cc2)=C(C)C1=O (stereo not drawn) [N-(4-fluorophenyl)-2-hydroxy-2-methyl-4-(2,4,5-trimethyl-3,6-dioxocyclohexa-1,4-dienyl)butanamide]
not listed: [1]
< 100 nM: all other assays above
